A short description of test [1]: non-specific 3'UTR reporter inhibition in Clone20-Shn3RL – cell-based, Renilla luciferase, cherry-picked, counter-screen for Shn3 inhibitor project, dose response (AID 624133). Format: functional.
Test [2] is described as follows: reduction of Shn3 3'UTR-driven luciferase in osteoblasts – cell-based, Clone20 osteoblasts, firefly luciferase, cherry-picked, dose response (AID 624132).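 Also: firefly luciferase luminescence from reporter carrying the Shn3 3'UTR in osteoblasts.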 It is filed as functional.
The next test addresses Paired box protein Pax-8 (Homo sapiens, UniProt Q06710). The test is described as follows: PAX8 transcriptional activity inhibition in RMG-I – RMG-I cells, luciferase, cherry-pick, dose response (AID 687027).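 Also: luciferase reporter driven by Pax8 target thyroperoxidase promoter measured by SteadyGlo luminescence.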 It is filed as functional, cell-based.
Test [3] addresses T1, Polyadenylate-binding protein 1 (Homo sapiens, UniProt P11940). Briefly: MLLE domain peptide-binding blockers, IC50 – biochemical, fluorescence polarization, FITC-PAM2 peptide, dose response (AID 602259). Format: functional. Particulars: read-out: IC50_Mean. (Polarisation of emitted light reports the rotation of a fluorescent probe.)
The next test concerns Streptococcus. The test is described as follows: GAS UMAA2166 growth inhibition – luminescence, BacTiterGlo, counter-screen for streptokinase expression inhibitor project, dose response (AID 1915).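 Also: potency for reduction of bacterial viability or growth.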 It is filed as functional, organism-based. On the technique in general: Counterscreens check selectivity or assay interference.
The target in test [4] is T1, Polyadenylate-binding protein 1. Briefly: MLLE binding blockers, Cy5 peptide tracer – biochemical, fluorescence polarization, Cy5-PAM2 peptide, secondary, miRNA deadenylation inhibitor project, dose response (AID 602260). Format: functional. Particulars: read-out: IC50_Mean.
Test [5] concerns Streptococcus sp. 'group A'. The test is described as follows: Streptococcus pyogenes SK(-)GAS viability under kanamycin – luminescence, BacTiterGlo, confirmation, counter-screen for streptokinase expression inhibitor project, dose response (AID 1900). It is filed as functional, organism-based.
Test [6] can be described thus: intracellular Trypanosoma cruzi inhibitors in host cells – cell-based, plate reader, cherry-pick samples, set 3, dose response (AID 651818).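 Also: compounds incubated with infected cells for about four days.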 Format: functional.
For test [7], the target named is T2, RNA-binding protein pos-1 (Caenorhabditis elegans, UniProt G5EF15).
T2 sequence (G5EF15 whole entry): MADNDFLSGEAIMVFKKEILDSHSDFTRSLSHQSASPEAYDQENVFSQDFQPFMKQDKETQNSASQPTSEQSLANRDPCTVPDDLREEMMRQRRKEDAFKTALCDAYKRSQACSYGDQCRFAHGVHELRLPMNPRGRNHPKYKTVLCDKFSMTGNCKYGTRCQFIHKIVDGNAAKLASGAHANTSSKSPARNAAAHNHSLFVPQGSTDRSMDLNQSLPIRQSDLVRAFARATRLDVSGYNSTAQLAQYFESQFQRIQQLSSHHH
Briefly: disruptors of C. elegans POS-1 RNA interaction – biochemical, fluorescence polarization, dose response (AID 1964).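 Also: purified POS-1 fused to maltose binding protein made in E. coli; potency of compounds blocking POS-1 binding to fluorescent RNA.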

Test [8] addresses T3, Zinc finger protein mex-5 (Caenorhabditis elegans, UniProt Q9XUB2).
T3 sequence (Q9XUB2 whole entry): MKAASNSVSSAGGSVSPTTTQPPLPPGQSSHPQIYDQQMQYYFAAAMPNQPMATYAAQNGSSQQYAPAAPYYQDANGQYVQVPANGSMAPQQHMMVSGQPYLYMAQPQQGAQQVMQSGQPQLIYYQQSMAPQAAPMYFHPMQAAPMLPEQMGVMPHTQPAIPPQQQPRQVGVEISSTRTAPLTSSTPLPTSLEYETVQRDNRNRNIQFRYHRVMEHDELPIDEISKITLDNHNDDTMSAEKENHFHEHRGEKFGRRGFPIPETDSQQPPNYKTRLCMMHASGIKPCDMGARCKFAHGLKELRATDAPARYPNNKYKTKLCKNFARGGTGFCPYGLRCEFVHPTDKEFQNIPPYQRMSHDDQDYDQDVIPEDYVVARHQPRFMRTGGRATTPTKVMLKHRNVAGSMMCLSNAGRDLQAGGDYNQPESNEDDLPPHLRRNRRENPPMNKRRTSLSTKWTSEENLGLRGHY
Briefly: potency of MEX-5 RNA-binding blockers – biochemical, C. elegans, fluorescence polarization, dose response (AID 1960).

A further test concerns the target Prothrombin (Homo sapiens, UniProt P00734). The test is described as follows: Thrombin 1536 HTS Dose Response Confirmation. [Related pubchem assays: 1046 (Thrombin 1536 HTS; hits were confirmed in this assay)]. Format: functional.
Test [9] deals with Luciferin 4-monooxygenase (Photinus pyralis, UniProt P08659). The test is described as follows: inhibition of purified Photinus pyralis luciferase – biochemical, luminescence, dose response (AID 1891).
A short description of test [10]: Luminescence Cell-Based Dose Confirmation HTS to Identify Inhibitors of Platelet Dense Granule Release. [Related pubchem assays: 1663 (Primary HTS), 1678 (Summary of Project)]. It is filed as functional.
Test [11] is described as follows: fluconazole-exposed Candida albicans growth modulators – fluorescence, retest, confirmation (AID 2467). Format: functional, cell-based.
Test [12] in a line: NIH-3T3 fibroblast cytotoxicity, dose response, cytotoxicity control, cell-based, fluorescence, Alamar Blue, secondary assay (AID 2327).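 Also: NIH-3T3 mouse fibroblasts cultured with fluconazole at 8 µg/mL.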 Format: functional. For orientation: Alamar Blue is a resazurin reagent that responds to reducing activity.
The next test deals with Cytochrome P450 3A4 (Homo sapiens, UniProt P08684).
In a further test the target is Cytochrome P450 2C9 (Homo sapiens, UniProt P11712).
Another test addresses Cytochrome P450 2C19 (Homo sapiens, UniProt P33261). Briefly: Cytochrome panel assay with activity outcomes. Panel member name: p450-cyp2c19 Compounds with AC50 equal or less than 10 uM are considered active. As to conditions: read-out: AC50. It is filed as functional.
For the next test, the target named is T4, Cytochrome P450 1A2 (Homo sapiens, UniProt P05177).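 Also: PubChem cytochrome P450 panel assay, CYP1A2 panel member.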
T4 sequence (P05177 whole entry): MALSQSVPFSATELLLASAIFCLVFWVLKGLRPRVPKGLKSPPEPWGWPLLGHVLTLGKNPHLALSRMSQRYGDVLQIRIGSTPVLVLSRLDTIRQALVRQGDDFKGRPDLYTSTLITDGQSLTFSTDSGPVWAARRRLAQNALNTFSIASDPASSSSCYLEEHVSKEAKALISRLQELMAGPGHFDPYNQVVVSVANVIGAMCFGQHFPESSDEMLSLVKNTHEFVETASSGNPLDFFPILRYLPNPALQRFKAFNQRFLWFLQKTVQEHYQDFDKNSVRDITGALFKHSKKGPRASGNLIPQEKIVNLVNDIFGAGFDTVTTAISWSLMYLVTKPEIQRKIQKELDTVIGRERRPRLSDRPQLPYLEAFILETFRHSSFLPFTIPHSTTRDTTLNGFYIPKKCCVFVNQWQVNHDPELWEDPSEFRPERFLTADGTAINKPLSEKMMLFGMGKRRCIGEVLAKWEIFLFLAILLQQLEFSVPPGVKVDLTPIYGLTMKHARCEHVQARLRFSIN

Molecules are shown by their SMILES. Activity calls are given as the source filed them.

T1 sequence (P11940 whole entry, the tested form may be a part): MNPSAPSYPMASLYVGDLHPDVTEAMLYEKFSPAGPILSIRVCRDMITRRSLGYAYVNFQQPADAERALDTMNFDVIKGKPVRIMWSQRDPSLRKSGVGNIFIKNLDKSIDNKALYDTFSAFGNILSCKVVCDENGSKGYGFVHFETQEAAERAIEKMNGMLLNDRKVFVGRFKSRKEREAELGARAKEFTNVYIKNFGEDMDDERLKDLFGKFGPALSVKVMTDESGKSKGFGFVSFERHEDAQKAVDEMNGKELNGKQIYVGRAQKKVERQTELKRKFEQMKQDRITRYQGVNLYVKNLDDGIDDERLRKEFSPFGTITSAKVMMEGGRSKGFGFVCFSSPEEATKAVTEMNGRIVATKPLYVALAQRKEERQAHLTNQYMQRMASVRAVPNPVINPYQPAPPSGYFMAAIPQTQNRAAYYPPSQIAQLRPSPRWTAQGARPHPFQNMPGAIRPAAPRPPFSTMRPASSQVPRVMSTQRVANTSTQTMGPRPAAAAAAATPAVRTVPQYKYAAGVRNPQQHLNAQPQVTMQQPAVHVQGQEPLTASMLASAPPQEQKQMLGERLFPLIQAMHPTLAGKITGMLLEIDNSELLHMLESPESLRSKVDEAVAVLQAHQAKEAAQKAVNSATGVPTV
Luciferin 4-monooxygenase, sequence (P08659 whole entry): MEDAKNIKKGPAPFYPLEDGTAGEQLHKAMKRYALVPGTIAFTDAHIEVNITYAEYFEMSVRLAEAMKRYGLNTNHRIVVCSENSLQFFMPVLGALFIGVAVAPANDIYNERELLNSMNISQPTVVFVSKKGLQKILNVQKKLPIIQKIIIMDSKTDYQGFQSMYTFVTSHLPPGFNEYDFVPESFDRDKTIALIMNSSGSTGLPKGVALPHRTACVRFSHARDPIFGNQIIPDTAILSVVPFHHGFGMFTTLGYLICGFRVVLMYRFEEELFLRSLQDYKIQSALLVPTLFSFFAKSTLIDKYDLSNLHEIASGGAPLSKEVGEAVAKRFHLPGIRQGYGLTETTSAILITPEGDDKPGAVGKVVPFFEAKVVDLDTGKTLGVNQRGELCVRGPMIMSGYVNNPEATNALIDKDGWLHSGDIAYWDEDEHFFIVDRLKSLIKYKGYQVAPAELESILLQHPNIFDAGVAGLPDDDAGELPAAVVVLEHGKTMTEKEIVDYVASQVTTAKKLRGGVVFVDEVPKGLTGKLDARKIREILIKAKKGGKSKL
Cytochrome P450 2C9, sequence (P11712 whole entry): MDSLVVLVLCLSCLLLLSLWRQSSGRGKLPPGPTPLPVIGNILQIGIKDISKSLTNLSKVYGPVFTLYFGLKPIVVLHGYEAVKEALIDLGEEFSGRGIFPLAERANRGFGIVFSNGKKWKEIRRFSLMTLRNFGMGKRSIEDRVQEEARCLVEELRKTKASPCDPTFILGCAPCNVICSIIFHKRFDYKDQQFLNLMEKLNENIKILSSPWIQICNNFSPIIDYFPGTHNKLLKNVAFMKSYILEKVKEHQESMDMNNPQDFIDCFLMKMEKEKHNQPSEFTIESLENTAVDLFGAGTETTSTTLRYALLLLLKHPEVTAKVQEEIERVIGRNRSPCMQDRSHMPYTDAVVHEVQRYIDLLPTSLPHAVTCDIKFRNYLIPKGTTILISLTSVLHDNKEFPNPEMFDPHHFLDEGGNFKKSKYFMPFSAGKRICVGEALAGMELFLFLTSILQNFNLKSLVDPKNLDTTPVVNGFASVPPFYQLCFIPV
Paired box protein Pax-8, sequence (Q06710 whole entry, the tested form may be a part): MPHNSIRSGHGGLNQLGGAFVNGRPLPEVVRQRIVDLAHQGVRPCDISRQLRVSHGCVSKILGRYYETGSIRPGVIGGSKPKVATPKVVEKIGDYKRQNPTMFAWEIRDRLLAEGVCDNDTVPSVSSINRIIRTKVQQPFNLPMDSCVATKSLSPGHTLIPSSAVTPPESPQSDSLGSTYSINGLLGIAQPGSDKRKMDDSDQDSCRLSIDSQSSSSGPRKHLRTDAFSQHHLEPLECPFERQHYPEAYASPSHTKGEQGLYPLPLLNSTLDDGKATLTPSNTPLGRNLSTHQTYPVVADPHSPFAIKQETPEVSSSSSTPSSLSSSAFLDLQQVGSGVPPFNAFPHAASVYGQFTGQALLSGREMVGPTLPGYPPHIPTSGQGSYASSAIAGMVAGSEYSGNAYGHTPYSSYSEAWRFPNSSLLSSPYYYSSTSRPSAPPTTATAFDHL
Cytochrome P450 2C19, sequence (P33261 whole entry): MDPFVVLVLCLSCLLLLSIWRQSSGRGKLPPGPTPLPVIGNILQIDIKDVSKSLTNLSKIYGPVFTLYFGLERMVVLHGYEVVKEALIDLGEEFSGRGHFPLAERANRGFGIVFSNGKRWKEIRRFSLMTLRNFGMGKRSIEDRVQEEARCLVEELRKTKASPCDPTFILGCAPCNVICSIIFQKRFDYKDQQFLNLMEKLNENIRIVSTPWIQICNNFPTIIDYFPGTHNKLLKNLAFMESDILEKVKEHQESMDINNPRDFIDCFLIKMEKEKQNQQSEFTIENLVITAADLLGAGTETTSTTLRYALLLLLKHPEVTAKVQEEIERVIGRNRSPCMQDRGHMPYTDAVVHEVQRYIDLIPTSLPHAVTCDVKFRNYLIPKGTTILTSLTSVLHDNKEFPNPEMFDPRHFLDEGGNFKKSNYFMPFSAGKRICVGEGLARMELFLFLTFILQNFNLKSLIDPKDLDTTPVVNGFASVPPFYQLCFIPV
Cytochrome P450 3A4, sequence (P08684 whole entry): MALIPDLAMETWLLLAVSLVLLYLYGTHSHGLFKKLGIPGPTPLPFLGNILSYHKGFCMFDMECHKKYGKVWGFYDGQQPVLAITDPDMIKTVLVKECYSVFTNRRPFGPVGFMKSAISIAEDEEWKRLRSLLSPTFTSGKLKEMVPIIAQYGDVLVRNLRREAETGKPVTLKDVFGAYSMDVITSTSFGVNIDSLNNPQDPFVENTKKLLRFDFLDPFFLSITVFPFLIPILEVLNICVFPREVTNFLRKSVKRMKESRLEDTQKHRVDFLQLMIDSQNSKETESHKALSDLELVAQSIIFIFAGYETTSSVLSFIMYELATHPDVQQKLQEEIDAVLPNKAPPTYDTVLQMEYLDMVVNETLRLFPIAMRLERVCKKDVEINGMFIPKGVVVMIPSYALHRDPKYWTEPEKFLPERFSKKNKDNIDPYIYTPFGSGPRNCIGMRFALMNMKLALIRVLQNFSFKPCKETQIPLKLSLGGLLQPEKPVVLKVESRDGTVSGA

In the case of `CCC(C)(O)C(=O)OC1C(=O)OC2CC3C(C)=CC(=O)C(O)C3(C)C3C4(O)OCC23C1C(C)C4O` (stereo not drawn), the AC50 was 5.79 µM (active) in [1], 866 nM (active) in [2] and 0.426 µM (active) on Paired box protein Pax-8.
As to `COc1cc(C(=O)NC(=S)Nc2ccc(NC(=O)c3ccco3)cc2)cc(OC)c1OC`, the IC50 in test [3] and in test [4] was > 66 µM (inactive) throughout. Further, the values for the EC50 (in the test with Streptococcus; in test [5]) were 7.42 µM (active) and 14.8 µM (active), respectively.
`C[C@H]1CN([C@@H](C)CO)C(=O)c2cccc(NC(=O)C3CCCCC3)c2O[C@@H]1CN(C)Cc1ccc(Oc2ccccc2)cc1`: the AC50 in test [6] was 4.77 µM (active).
For `Cc1ccc[n+](-c2[nH]c(=O)sc2C=NNC(=O)c2ccccc2[O-])c1`, the values for the EC50 in [7] and in [8] were 42.4 µM (active) and 38.5 µM (active), respectively. Moreover, the figures for the IC50 in test [3] and in test [4] were 43.9 µM (inactive) and > 66 µM (inactive), respectively.
Turning to `COc1ccc(CNc2nc(-c3cccnc3)nn2C(=O)C(C)C)cc1`, the IC50 at Prothrombin was 0.167 µM (active).
For the compound `C[C@H](CO)N1C[C@H](C)[C@@H](CN(C)Cc2ccc(C(=O)Nc3ccccc3N)cc2)Oc2c(NC(=O)c3ccc(-c4nccs4)cc3)cccc2C1=O`, in [6], the concentration at half-maximal activity (AC50) is 2.85 µM (active).
In the case of `c1ccc(C2=NNC(c3ccccn3)=NN2)nc1`, the EC50 in test [7] was 25.3 µM (active); in [8] it was 22.4 µM (active). Further, the IC50 in [3] and in test [4] was > 66 µM (inactive) throughout.
As to `Cc1nn(-c2ccccc2)c(Cl)c1/C=N/NC(=O)c1[nH]ncc1Br`, the results for the EC50 in test [9] and in test [10] were 0.374 µM (active) and 3.52 µM (active), respectively.
With `CCN(CC)S(=O)(=O)c1cccc(NC(=O)/C=C/c2cccc([N+](=O)[O-])c2)c1`, the IC50 at Prothrombin was > 50 µM (not active).
In the case of `CC[C@@H]1C=CC=CC[C@H](C)[C@@H](O)[C@@H](C)C(=O)[C@H](C)[C@@H](O)[C@H](C)C(=O)[C@H](C)[C@@H](O)[C@H](C)C=CC(=O)O[C@H]2[C@@H](C)[C@@H](CC1)O[C@@]1(CC[C@@H](C)[C@@H](C[C@H](C)O)O1)[C@@H]2C` [OLIGOMYCIN C], the EC50 in test [11] is 0.427 µM (active); in test [12] it was 15.6 µM (active).
As for `C[C@@H](CO)NC(=O)c1ccc2c3n(nc2c1)-c1ccccc1CO3`, the EC50 in test [9] is 16.4 µM (active); in [10], 6.93 µM (active).
Consider `CCCOc1ccc(CNC(=O)c2ccc3c(c2)N(CC)CCS3)cc1`, for which the EC50 in test [9] and in [10] was > 112 µM (not active) in each case.
For `Cc1cc(S(=O)(=O)N2CCCCC2)ccc1OCC(=O)Nc1ccccc1`, the EC50 was > 112 µM (not active) in test [9] and 19.7 µM (active) in test [10].
`CCOC(=O)CSc1n[nH]c(NC(=O)c2cccc(C)c2)n1`: the IC50 at Prothrombin is 0.586 µM (active). Further, the AC50 at Cytochrome P450 3A4 was 5.62 µM (inconclusive); on Cytochrome P450 2C9, 25.1 µM (inconclusive).
For the compound `C[C@@H]1CN([C@@H](C)CO)C(=O)Cc2cc(NC(=O)Nc3ccc4c(c3)OCO4)ccc2O[C@@H]1CN(C)Cc1ccc(-c2ccccc2)cc1`, the AC50 in test [6] is 4.26 µM (active).
Take `Nc1nnnn1/N=C/c1cccc(Oc2ccccc2)c1`: the 50% effective concentration (EC50) in test [11] is > 38 µM (not active); in test [12] it was > 150 µM (inactive).
Take `C[C@H]1CN([C@@H](C)CO)C(=O)Cc2cc(NC(=O)Nc3ccc(C(F)(F)F)cc3)ccc2O[C@@H]1CN(C)Cc1ccc(-c2ccccc2)cc1`: the concentration at half-maximal activity (AC50) in test [6] is 3.1 µM (active).
With `CC(C)c1nnc(NC(=O)c2cnccn2)s1`, the IC50 at Prothrombin was > 50 µM (not active).
For the compound `COc1ccc(S(=O)(=O)N(C)CC(=O)Nc2ccc3c(c2)OCO3)cc1OC`, the EC50 in [9] and in test [10] was > 112 µM (not active) throughout.
For `Cc1ccc(C(=O)n2ncn(C)c2=S)cc1`, the IC50 on Prothrombin is 1.02 µM (active).
`CCCCCCC#Cc1ccc2c(c1)COc1c3ccccc3nn1-2`: in test [1], the AC50 was 7.68 µM (active).
For the compound `CCn1c(O)nnc1Sc1nc(C)nc2scc(-c3cccs3)c12`, the EC50 in test [11] is 0.163 µM (active); in test [12] it was > 160 µM (inactive).
On to `CC(C)c1ccc(N(CC(=O)N/N=C/c2ccc(OC3CSC3)cc2)S(=O)(=O)c2ccccc2)cc1`, for which the IC50 against Prothrombin was > 50 µM (not active).
With `COc1ccc(CC(=O)n2nc(-c3ccccc3)nc2NCc2ccco2)cc1`, the IC50 on Prothrombin is 8.75 µM (active).
As for `CC1COC(=O)C(NNc2ccc(Cl)c(Cl)c2)=N1` (stereo not drawn), the EC50 in test [11] is 2.17 µM (active); in [12] it was > 160 µM (inactive).
For `CSc1nc(-c2ccccc2)nn1C(=O)c1ccccc1`, the AC50 at Cytochrome P450 2C19 is 100 nM (inconclusive); on Cytochrome P450 2C9 it was 10 µM (inconclusive); on Cytochrome P450 1A2, 2.51 µM (inconclusive). Besides, the IC50 on Prothrombin is 0.896 µM (active).
On to `C[C@@H]1CN([C@H](C)CO)C(=O)Cc2cc(NC(=O)Nc3ccc(F)cc3)ccc2O[C@H]1CN(C)Cc1ccc(Cl)c(Cl)c1`, for which the AC50 in test [6] is 4.44 µM (active); at Paired box protein Pax-8, 16.2 µM (active).
On to `O=C(NNC(=S)NC(=O)c1ccccc1[N+](=O)[O-])c1ccc(Cl)cc1Cl`, for which the EC50 is 4.09 µM (active) in [11] and > 150 µM (inconclusive) in test [12].
In the case of `C[C@H]1CN([C@@H](C)CO)C(=O)c2cccc(NC(=O)c3cnccn3)c2O[C@@H]1CN(C)Cc1ccc(C(=O)Nc2ccccc2N)cc1`, in test [6], the AC50 is 2.99 µM (active).
In the case of `O=C(c1ccc(Cl)cc1)C1CCCN(Cc2ccc(Oc3ncccn3)cc2)C1` (stereo not drawn), the EC50 in test [9] and in [10] was > 112 µM (not active) in each case.
`CCOC(=O)C1CCN(/C=N/c2cc(C)on2)CC1`: the EC50 in test [9] and in [10] was > 112 µM (not active) each time.
`Cc1ccc(S(=O)(=O)N(C)C[C@@H]2Oc3c(NC(=O)Nc4ccc(C(F)(F)F)cc4)cccc3C(=O)N([C@H](C)CO)C[C@@H]2C)cc1`: in [6], the AC50 is 5.16 µM (active).
`C[C@H]1CN([C@@H](C)CO)C(=O)c2cccc(NS(=O)(=O)c3ccc(F)cc3)c2O[C@H]1CN(C)Cc1ccc(C(=O)Nc2ccccc2N)cc1`: the AC50 in [6] was 3.43 µM (active).
With `C#CCNc1cc(C)nc2ncnn12`, the IC50 on Prothrombin is recorded as > 50 µM (not active).

As a reminder, the AC50 is the concentration at which the activity in the assay is half-maximal. The EC50 is the midpoint of the concentration-response curve.

Values taken from ChEMBL document CHEMBL1201862, “PubChem BioAssay data set” (2004).
